IC50 and AC50 data for three molecules are collected here from ChEMBL document CHEMBL1201862, “PubChem BioAssay data set” (2004).

Test [1] concerns the target T1, Apoptotic protease-activating factor 1 (Homo sapiens, UniProt O14727).
T1 sequence (O14727 whole entry): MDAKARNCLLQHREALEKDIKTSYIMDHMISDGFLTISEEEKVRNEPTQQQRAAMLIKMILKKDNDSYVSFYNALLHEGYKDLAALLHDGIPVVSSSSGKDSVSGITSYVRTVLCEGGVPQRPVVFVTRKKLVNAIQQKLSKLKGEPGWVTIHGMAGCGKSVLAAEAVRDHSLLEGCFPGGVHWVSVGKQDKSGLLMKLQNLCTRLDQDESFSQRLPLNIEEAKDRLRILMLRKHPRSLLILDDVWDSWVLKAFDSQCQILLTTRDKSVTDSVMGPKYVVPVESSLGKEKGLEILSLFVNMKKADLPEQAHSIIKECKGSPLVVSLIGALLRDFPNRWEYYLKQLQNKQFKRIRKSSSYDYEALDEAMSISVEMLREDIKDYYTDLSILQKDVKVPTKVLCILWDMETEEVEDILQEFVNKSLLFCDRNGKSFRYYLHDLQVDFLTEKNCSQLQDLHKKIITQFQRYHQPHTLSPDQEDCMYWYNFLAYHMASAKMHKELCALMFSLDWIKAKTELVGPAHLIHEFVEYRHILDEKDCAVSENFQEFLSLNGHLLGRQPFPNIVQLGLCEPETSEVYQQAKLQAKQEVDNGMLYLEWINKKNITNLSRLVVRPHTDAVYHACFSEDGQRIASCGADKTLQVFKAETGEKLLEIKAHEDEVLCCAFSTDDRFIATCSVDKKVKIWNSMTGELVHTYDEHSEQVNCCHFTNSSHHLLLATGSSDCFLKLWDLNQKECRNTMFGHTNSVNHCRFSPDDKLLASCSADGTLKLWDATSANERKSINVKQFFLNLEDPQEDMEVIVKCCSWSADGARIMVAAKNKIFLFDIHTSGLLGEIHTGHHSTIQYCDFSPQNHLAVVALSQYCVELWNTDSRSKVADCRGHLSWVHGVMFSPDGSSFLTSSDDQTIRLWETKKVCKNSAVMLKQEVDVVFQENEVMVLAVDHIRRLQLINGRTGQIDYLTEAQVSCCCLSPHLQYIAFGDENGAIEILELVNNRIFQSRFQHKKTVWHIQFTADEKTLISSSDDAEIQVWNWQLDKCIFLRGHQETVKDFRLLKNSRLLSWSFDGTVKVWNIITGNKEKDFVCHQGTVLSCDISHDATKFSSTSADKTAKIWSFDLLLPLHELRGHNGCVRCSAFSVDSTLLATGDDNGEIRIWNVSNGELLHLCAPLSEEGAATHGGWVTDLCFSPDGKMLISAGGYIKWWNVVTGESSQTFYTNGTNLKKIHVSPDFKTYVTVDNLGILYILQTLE
It counts as functional.

In test [2] the target is T2, Replicative DNA helicase DnaB (Mycobacterium tuberculosis, UniProt P9WMR3).
T2 sequence (P9WMR3 whole entry): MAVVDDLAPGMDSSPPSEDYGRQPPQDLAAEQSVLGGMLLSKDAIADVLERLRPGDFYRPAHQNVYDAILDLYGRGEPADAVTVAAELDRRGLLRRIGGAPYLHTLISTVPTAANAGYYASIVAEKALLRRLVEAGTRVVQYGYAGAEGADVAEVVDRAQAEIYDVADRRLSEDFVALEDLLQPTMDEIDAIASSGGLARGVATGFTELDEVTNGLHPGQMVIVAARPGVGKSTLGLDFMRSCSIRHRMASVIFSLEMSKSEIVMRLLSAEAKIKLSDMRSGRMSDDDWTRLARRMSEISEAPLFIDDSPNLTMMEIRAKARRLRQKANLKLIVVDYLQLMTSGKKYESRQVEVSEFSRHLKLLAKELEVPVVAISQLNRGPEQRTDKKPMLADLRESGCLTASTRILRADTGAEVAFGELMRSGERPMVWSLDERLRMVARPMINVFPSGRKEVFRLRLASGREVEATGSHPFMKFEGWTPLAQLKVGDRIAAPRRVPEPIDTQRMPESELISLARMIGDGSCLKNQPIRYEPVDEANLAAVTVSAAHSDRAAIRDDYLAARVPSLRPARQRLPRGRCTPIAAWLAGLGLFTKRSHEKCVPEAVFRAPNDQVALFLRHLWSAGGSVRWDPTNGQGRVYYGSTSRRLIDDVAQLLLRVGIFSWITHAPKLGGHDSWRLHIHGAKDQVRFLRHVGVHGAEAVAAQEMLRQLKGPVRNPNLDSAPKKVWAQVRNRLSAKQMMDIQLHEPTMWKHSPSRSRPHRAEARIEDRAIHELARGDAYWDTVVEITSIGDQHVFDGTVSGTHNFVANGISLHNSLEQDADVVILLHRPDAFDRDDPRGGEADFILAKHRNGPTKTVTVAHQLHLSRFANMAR
Briefly: DnaB intein splicing inhibitors, dose response, biochemical, cell-free fluorescence (AID 449749). It counts as functional.

Molecules are shown by their SMILES. Calls of active or inactive are those of the source.

Regarding `Cc1ccc(C(=O)NNc2cc(N3CCCC3)nc(N3CCCC3)n2)cc1`, the IC50 in test [1] is 5.08 µM (active).

In the case of `COC(=O)c1cccc(-c2ccc(C(c3c(C)n[nH]c3O)c3c(C)n[nH]c3O)o2)c1`, the AC50 in test [2] is 0.398 µM (active). Turning to `O=C1/C(=N\c2cccc(O)c2)C(N2CCCCC2)=C(O)c2ccccc21`, in test [1], the IC50 is 4.03 µM (active). Moreover, in test [2], the AC50 is 5.58 µM (active).
